In patent US9701645B2 (priority 2005, dated 2017):
Read-outs that look alike come from different tables or passages of the source.

Key:
delta-opioid receptor = biological target: T1, delta-opioid receptor (Rattus norvegicus, UniProt P33533); assay: Radioligand binding, delta receptor ([3H]DPDPE)
T1 construct: delta and mu receptors from rat whole brain homogenate; from tissue; host or cells: rat whole brain homogenate (membrane fractions)
Description: (§1) The basic pharmacology of the Formulas (i)-(iv) is described below in terms of receptor binding affinity (delta and mu receptors from rat whole brain homogenate; kappa receptors from guinea pig cerebellar homogenate), intrinsic activity in mouse isolated vas deferens (delta receptor) and guinea pig isolated ileum (mu receptor).
(§2) Membrane fractions were incubated with test compound or naloxone (1×10^−6 M) plus 0.1 nM of the delta-opioid receptor agonist [^3H] DPDPE (specific activity 50.6 Ci/mmol), 0.1 nM of the mu-opioid receptor agonist [^3H]DAMGO (specific activity 50.0 Ci/mmol) or 0.1 nM of the kappa-opioid receptor agonist [^3H]U69593 (specific activity 41.4 Ci/mmol) in 2 ml of 10 mM Tris-HCl buffer containing 5 mM MgCl2 and protease inhibitors. Incubation was carried out for 90 min at 25° C. in order to permit the complete equilibration of the radioligand with its receptor. The reaction was terminated by rapid filtration through Whatman GF/C glass fiber filters using a cell harvester (model M-48R, Brandel Instruments, Gaithersberg, Md.) followed by two 5 ml rinses with ice-cold 50 mM Tris buffer. Non-specific binding was defined as that radioligand bound in the presence of 1×10^−6 M naloxone.

mu-opioid receptor [1] = biological target: T2, mu-opioid receptor (Rattus norvegicus, UniProt P33535); assay: Radioligand binding, mu receptor ([3H]DAMGO)
T2 construct: delta and mu receptors from rat whole brain homogenate; from tissue; host or cells: rat whole brain homogenate (membrane fractions)
T2 sequence (P33535 whole entry): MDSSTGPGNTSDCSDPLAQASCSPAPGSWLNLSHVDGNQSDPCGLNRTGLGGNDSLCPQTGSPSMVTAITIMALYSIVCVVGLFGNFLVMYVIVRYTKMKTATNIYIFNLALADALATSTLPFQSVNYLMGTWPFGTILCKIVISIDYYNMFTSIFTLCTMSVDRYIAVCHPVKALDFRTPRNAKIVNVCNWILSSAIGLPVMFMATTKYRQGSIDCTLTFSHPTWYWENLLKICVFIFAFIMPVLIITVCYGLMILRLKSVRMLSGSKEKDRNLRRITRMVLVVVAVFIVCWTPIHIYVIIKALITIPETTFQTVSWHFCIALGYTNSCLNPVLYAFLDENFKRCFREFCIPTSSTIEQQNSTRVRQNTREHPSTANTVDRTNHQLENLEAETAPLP
Description: as §1, §2

kappa-opioid receptor [2] = biological target: T3, kappa-opioid receptor (Cavia porcellus, UniProt P41144); assay: Radioligand binding, kappa receptor ([3H]U69593); parameters: species or system guinea pig
T3 construct: kappa receptors from guinea pig cerebellar homogenate; from tissue; host or cells: guinea pig cerebellar homogenate (membrane fractions)
T3 sequence (P41144 whole entry): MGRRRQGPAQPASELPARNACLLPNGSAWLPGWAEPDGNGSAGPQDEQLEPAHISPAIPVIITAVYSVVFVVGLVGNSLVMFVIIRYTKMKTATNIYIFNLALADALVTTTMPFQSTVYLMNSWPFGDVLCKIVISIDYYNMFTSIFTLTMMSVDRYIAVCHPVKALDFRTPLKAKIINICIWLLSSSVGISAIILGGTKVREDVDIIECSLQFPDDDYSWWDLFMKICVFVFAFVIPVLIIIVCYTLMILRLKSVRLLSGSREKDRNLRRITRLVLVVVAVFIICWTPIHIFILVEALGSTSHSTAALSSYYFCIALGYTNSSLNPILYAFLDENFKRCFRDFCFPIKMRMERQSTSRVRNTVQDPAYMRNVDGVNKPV
Description: as §1, §2

delta receptor = biological target: T4, delta receptor (Mus musculus, UniProt P32300); assay: Intrinsic activity, electrically-induced contractions of mouse isolated vas deferens (MVD); type: cell-based
T4 construct: vasa deferentia were isolated from male CD-1 mice; tissue Charles River; host or cells: isolated vas deferens of male CD-1 mice
T4 sequence (P32300 whole entry): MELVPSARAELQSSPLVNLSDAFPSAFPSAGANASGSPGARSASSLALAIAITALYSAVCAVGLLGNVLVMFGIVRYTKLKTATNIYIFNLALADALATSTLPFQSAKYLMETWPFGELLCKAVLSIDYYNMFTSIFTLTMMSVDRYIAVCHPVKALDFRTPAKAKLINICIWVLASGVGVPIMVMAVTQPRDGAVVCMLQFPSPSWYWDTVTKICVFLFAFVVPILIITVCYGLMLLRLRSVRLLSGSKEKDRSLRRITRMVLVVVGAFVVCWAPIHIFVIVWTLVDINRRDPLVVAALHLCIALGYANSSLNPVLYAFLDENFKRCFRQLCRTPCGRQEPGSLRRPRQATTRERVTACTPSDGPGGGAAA
Description: as §1
Tension development in isolated mouse vas deferens was measured as described previously (Chang et al., 1993). Following cervical dislocation, vasa deferentia were isolated from male CD-1 mice (Charles River, Raleigh, N.C.) weighing 20-25 g. Muscles were suspended in individual organ baths containing Mg-free Krebs-Henseleit solution (37° C., aerated with O2—CO2, 95:5) of the following composition (mM): NaCl, 117.5; KCl, 4.75; CaCl2, 2.6; KH2PO4, 1.2; NaHCO3, 24.5; and glucose, 11. The vas deferens segments were positioned between platinum electrodes (Radnoti Glassware Technology Inc., Monrovia, Calif.) and connected to a Grass (Grass-Telefactor, West Warwick, R.I.) FTO3 isometric force transducer under a resting tension of 0.5 g. Muscles were stimulated to contract by administering 400 msec pulse trains (1 msec duration, supramaximal voltage, 10 Hz) with a Grass S88 stimulator. An IC50 value for test compound inhibition of electrically-induced contractions was produced through the addition of cumulative concentrations of test compound to the bathing solution (Chang et al., 1993).
The ED50 values for formula (ii) were extrapolated from curves showing the dose concentration plotted against the response and are presented in FIG. 2.

reserpine treated rats = assay: Locomotor activity in reserpine treated rats; type: in vivo, rat; conditions: compound 18 hours after reserpine, 3, 10 or 30 mg/kg, total counts over 1 h
Description: (§3) Behavioral parameters were monitored in transparent shoebox cages that measured 45×25×20 cm, with a 1-cm depth of wood chips on the cage floor and a plastic grid on top of the cage. Rectangular photocell monitors with a bank of 3 photocell beams surrounded each test cage. Ambulations (locomotor activity: total number of beam breaks in 1 hour) were recorded by computer and stored for each test session.
(§4) Animals were administered injections of dextrose, reserpine or haloperidol. Formula (i) or Formula (ii) was then administered 18 hours after reserpine at doses of 3, 10 or 30 mg/kg or 15 minutes after haloperidol at doses of 1, 3, 10 or 30 mg/kg. Animals were monitored over a 60-min period in all instances, and data are expressed as total counts over the entire 1 h test period. […] In these studies, clinically effective therapies such as dopamine replacement therapy restore locomotor activity in dopamine-depleted or dopamine antagonist treated animals. Dopamine replacement therapy also, however, produces an overshoot in locomotor activity beyond the locomotor counts observed with normal control animals (with intact dopamine systems). This is considered the activating component of dopamine replacement therapy that results in dyskinesias in Parkinson's patients.

haloperidol-treated rats = assay: Locomotor activity in haloperidol treated rats; type: in vivo, rat; conditions: for Efficacy on locomotor activity (FIG. 1): compound 15 minutes after haloperidol, 1, 3, 10 or 30 mg/kg, total counts over 1 h
Description: as §3, §4

mice [3] = assay: Seizure-like convulsion incidence in mice; type: in vivo, mouse
Description: One of the most obvious side-effects of potent delta agonists that rapidly penetrate the blood brain barrier is convulsive episodes reminiscent of possible seizure-like brain activity. The mouse is the chosen species for study of these effects since the mouse is the most highly convulsion-sensitive rodent species and mice present with a clear and obvious, whole body tonic-clonic convulsion. One of the earliest phases of delta agonist safety assessments is thus the determination of the convulsion threshold in mice.

rats [4] = assay: Seizure-like convulsant activity in rats; type: in vivo, rat; conditions: oral doses up to 40 mg/kg, results not shown
[5] = system: Parkinson's disease rodent models; assay: Parkinson's disease rodent models (summary statements); type: in vivo, rat; conditions: for Overshoot of locomotor activation beyond normal control animals: haloperidol- or reserpine-treated rats
Description: as §3, §4
An opioid receptor agonist selective for the delta receptor. • 2. Active in Parkinson's disease rodent models. • a. Potent at improving locomotor activity of haloperidol-treated rats. • b. Potent at improving locomotor activity in reserpine treated rats. • 3. Orally active in Parkinson's disease rodent models. • a.

mu-opioid receptor [6] = biological target: T2, mu-opioid receptor; conditions: known results of SNC80; read-out: Receptor Binding Affinity, Ki Mu; cited from earlier work
kappa-opioid receptor [7] = biological target: T3, kappa-opioid receptor; conditions: known results of SNC80; read-out: Receptor Binding Affinity, Ki Kappa; cited from earlier work
mice [8] = conditions: cited from earlier work
rats [9] = conditions: cited from earlier work
[10] = system: rats treated with reserpine or dopamine receptor antagonists (haloperidol or SCH23390); conditions: 10 mg/kg i.p.; cited from earlier work
MPTP-treated marmosets = conditions: cited from earlier work
[11] = system: MPTP-lesioned primate (marmosets) model of Parkinson's disease; conditions: 10 mg/kg i.p., without attenuation of the anti-parkinsonian actions of L-DOPA; cited from earlier work

T1 sequence (P33533 whole entry): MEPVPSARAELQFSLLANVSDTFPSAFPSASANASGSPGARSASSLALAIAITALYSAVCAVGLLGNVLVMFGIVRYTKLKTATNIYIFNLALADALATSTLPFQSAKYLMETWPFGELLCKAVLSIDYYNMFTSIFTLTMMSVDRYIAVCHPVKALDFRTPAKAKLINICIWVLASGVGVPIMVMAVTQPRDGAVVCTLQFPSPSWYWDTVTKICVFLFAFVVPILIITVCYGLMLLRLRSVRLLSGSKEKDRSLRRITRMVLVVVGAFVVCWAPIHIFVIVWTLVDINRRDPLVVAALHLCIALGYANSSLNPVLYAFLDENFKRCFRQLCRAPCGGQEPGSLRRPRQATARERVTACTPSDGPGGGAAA

Compound | Ki (delta-opioid receptor) | Ki (mu-opioid receptor [1]) | Ki (kappa-opioid receptor [2]) | EC50 (delta receptor) | Efficacy on locomotor activity (FIG. 1) (reserpine treated rats) | Efficacy on locomotor activity (FIG. 1) (haloperidol-treated rats; haloperidol treated rats) | Seizure-like convulsion incidence in mice (% of animals treated) (mice [3]; Intravenous 1 mg/kg) | Seizure-like convulsion incidence in mice (% of animals treated) (mice [3]; Intravenous 3 mg/kg) | Oral activity in Parkinson's disease rodent models [5] | Seizure-like convulsion incidence in mice (% of animals treated) (mice [3]; Oral 60 mg/kg) | other results
CCN(CC)C(=O)c1ccc([C@H](c2cccc(O)c2)N2C[C@@H](C)N(Cc3cccc(F)c3)C[C@@H]2C)cc1 [Formula (i), 4-((alpha-R)-alpha-((2S,5R)-2,5-Dimethyl-4-(3-fluorobenzyl)-1-piperazinyl)-3-hydroxybenzyl)-N,N-diethylbenzamide] | 0.73 nM | 11.6 nM | 567 nM | 2.6 nM | clear efficacy | clear efficacy | 50% | 40% | Orally active |  | Binding affinity for the delta receptor compared to SNC80 (delta-opioid receptor): increased binding affinity; Binding affinity for the mu receptor compared to SNC80 (mu-opioid receptor [1]): increased binding affinity; Seizure-like convulsion incidence in mice (% of animals treated) (mice [3]; Intravenous 0.3 mg/kg): 0%; Seizure-like convulsion incidence in mice (% of animals treated) (mice [3]; Oral 15 mg/kg): 23%; Seizure activity in mice relative to SNC80 (mice [3]): reduced relative to SNC80; Oral seizure-like convulsant activity in rats (rats [4]): no oral-seizure-like convulsant activity; Overshoot of locomotor activation beyond normal control animals [5]: No evidence for overshoot of locomotor activation
CCN(CC)C(=O)c1ccc([C@H](c2cccc(O)c2)N2C[C@@H](C)N(Cc3ccccc3F)C[C@@H]2C)cc1 [Formula (ii), 4-((Alpha-R)-Alpha-((2S,5R)-2,5-Dimethyl-4-(2-fluorobenzyl)-1-piperazinyl)-3-hydroxybenzyl)-N,N-diethylbenzamide] |  | 7.8 nM | 171 nM | 3 nM | clear efficacy | clear efficacy | 0% | 30% | Orally active | 30% | Binding affinity for the delta receptor compared to SNC80 (delta-opioid receptor): increased binding affinity; Ki (delta-opioid receptor; rat whole brain homogenate, 0.1 nM [3H]DPDPE, read-out: Receptor Binding Affinity, Ki Delta): 0.77 nM; Binding affinity for the mu receptor compared to SNC80 (mu-opioid receptor [1]): increased binding affinity; Beneficial effects in presence of delta receptor antagonist naltrindole (FIG. 4) (haloperidol-treated rats; haloperidol treated rats, with naltrindole (NTI)): completely blocked; Anti-parkinsonian syndrome effects (FIG. 3B) (haloperidol-treated rats; haloperidol-treated rats, i.p. (intraperitoneal)): shows potency; Anti-parkinsonian syndrome effects (FIG. 3A) (haloperidol-treated rats; haloperidol-treated rats, p.o. (oral, by gavage)): shows potency; Seizure-like convulsion incidence in mice (% of animals treated) (mice [3]; Oral 15 mg/kg): 20%; Seizure-like convulsion incidence in mice (% of animals treated) (mice [3]; Oral 30 mg/kg): 20%; Seizure activity in mice relative to SNC80 (mice [3]): reduced relative to SNC80; Overshoot of locomotor activation beyond normal control animals [5]: No evidence for overshoot of locomotor activation
CCN(CC)C(=O)c1ccc([C@H](c2cccc(OC)c2)N2C[C@@H](C)N(Cc3cccc(F)c3)C[C@@H]2C)cc1 [Formula (iii), 4-((alpha-R)-alpha-((2S,5R)-2,5-Dimethyl-4-(3-fluorobenzyl)-1-piperazinyl)-3-methoxybenzyl)-N,N-diethylbenzamide] | 5.6 nM | 5000 nM | 100 nM | 29 nM |  |  |  | 20% |  | 0% | 
CCN(CC)C(=O)c1ccc([C@H](c2cccc(OC)c2)N2C[C@@H](C)N(Cc3ccccc3F)C[C@@H]2C)cc1 [Formula (iv), 4-((alpha-R)-alpha-((2S,5R)-2,5-Dimethyl-4-(2-fluorobenzyl)-1-piperazinyl)-3-methoxybenzyl)-N,N-diethylbenzamide] | 4.2 nM | 5000 nM | 100 nM | 4.1 nM |  |  | 0% | 20% |  | 10% | Seizure-like convulsion incidence in mice (% of animals treated) (mice [3]; Oral 30 mg/kg): 0%
C=CCN1C[C@H](C)N([C@H](c2ccc(C(=O)N(CC)CC)cc2)c2cccc(OC)c2)C[C@H]1C [SNC80] |  |  |  |  | clear efficacy | clear efficacy | 30% | 100% | lack of oral activity |  | Seizure-like convulsion incidence in mice (% of animals treated) (mice [3]; Intravenous 0.3 mg/kg): 0%; Ki (mu-opioid receptor [6]): 4800 nM; Ki (kappa-opioid receptor [7]): 4100 nM; Seizure-like convulsions (Broom, et al., 2002) (mice [8]): produce seizure-like convulsions; Seizure-like convulsions (Broom, et al., 2002) (rats [9]): produce seizure-like convulsions; Behavioral deficits (ambulatory behavior, grooming, rearing, social interaction and exploration, static investigation) [10]: restored behavioral deficits; Parkinsonian posture induced by MPTP treatment (MPTP-treated marmosets): not statistically reversed; Motor activity, bradykinesia and disability scores (MPTP-treated marmosets; similar dose levels (10 mg/kg)): restored motor activity, bradykinesia and disability scores to normal
COc1cccc2c1[C@]13CCN(CC4CC4)[C@H](C2)[C@]1(OC)CCC(=O)C3 [cyprodime] |  |  |  |  |  |  |  |  |  |  | L-DOPA-induced dyskinesia [11]: reduce completely
Oc1ccc2c3c1O[C@H]1c4[nH]c5ccccc5c4C[C@@]4(O)[C@@H](C2)N(CC2CC2)CC[C@]314 [naltrindole, reference compound] |  |  |  |  |  |  |  |  |  |  | Effect alone in haloperidol treated rats (FIG. 4) (haloperidol-treated rats; naltrindole alone): no effect
